The text below walks through data of PubChem BioAssay (NCI).

Among the test systems are SK-OV-3 ovarian; SK-MEL-28 melanoma; UACC-62 melanoma; SN12C renal; SW-620 colon; OVCAR-8 ovarian; OVCAR-3 ovarian; RPMI-8226 leukemia; HOP-92 NSCLC; COLO 205 colon; EKVX NSCLC; HOP-18 NSCLC.
Common to all, as to experiment: DTP human tumour cell line panel, 48 h

Molecules are shown by their SMILES.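 How tested: cells in 96-well plates exposed to compound for 48 hours at five concentrations. Here, GI50 denotes the concentration required for 50% inhibition of growth. At the TGI there is no net growth.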 Where a SMILES comes first, the peptide text is derived from it. [ ]: non-standard residue; d: D form. ξ: configuration not given here. ξLac(3-iPr) = CC(C)CC(O)C(=O)O; NMeV = CN[CH](C(=O)O)C(C)C; NMeA = CN[CH](C)C(=O)O; βAla = NCCC(=O)O

As for `CC(NC(=O)c1ccc(NP(=O)(OCc2ccc([N+](=O)[O-])o2)N(C)CCCCCl)cc1)c1ccc(OCC2CCCCC2)c(C(N)=O)c1` (stereo unspecified), the TGI is 78.3 µM in the test with SK-OV-3 ovarian; 31.6 µM with SK-MEL-28 melanoma; 26.4 µM in the test on UACC-62 melanoma; 47.5 µM in the test on SN12C renal; 86.8 µM in the test on SW-620 colon; greater than 100 µM with OVCAR-8 ovarian. Also, the TGI in the test on OVCAR-3 ovarian came to 33.9 µM; in the test on RPMI-8226 leukemia, 21.1 µM; with HOP-92 NSCLC, 20.6 µM; with COLO 205 colon, 22.8 µM.

Take `CO/N=C\c1cc(O)c(O)c(/C=N/OC)c1`: the TGI in the test on SK-OV-3 ovarian, in the test with SK-MEL-28 melanoma, in the test with UACC-62 melanoma, in the test with SN12C renal, in the test with SW-620 colon and in the test with OVCAR-8 ovarian was greater than 100 µM in each case. In addition, the TGI in the test with OVCAR-3 ovarian, with RPMI-8226 leukemia, in the test on EKVX NSCLC, with HOP-92 NSCLC and in the test on COLO 205 colon was greater than 100 µM in each case.

As to `CCC(C)C1NC(=O)C2CCCN2C(=O)C(CC(C)C)OC(=O)CCNC(=O)C(C)N(C)C(=O)C(C(C)C)N(C)C1=O` (stereo unspecified) (cyclo([ξLac(3-iPr)]PI[NMeV][NMeA][βAla]); configuration not given here), the TGI was greater than 86.8 µM with SK-OV-3 ovarian; greater than 100 µM with SK-MEL-28 melanoma; 5.06 µM with UACC-62 melanoma; greater than 100 µM in the test on SN12C renal; greater than 100 µM in the test on SW-620 colon; 29.2 µM in the test with OVCAR-8 ovarian. The TGI was greater than 100 µM in the test with OVCAR-3 ovarian; 8.15 µM with RPMI-8226 leukemia; greater than 100 µM in the test with EKVX NSCLC; greater than 100 µM in the test on HOP-92 NSCLC; 17.2 µM in the test with COLO 205 colon.

Consider `O=C1c2ccccc2C(=O)c2c(Nc3cc4c5c(ccc6c7ccc8c9c(cc(Nc%10cccc%11c%10C(=O)c%10ccccc%10C%11=O)c(c3c56)c97)-c3ccccc3C8=O)C(=O)c3ccccc3-4)cccc21`, for which the TGI in the test with SK-OV-3 ovarian is 51.1 µM; with SK-MEL-28 melanoma, greater than 100 µM; in the test on UACC-62 melanoma, greater than 100 µM; with SN12C renal, greater than 100 µM; with SW-620 colon it was greater than 100 µM; in the test with OVCAR-8 ovarian, greater than 100 µM. Also, the TGI with OVCAR-3 ovarian, in the test with RPMI-8226 leukemia, in the test with EKVX NSCLC, in the test on HOP-92 NSCLC and in the test with COLO 205 colon was greater than 100 µM each time.

As for `Cc1ccc(C2COc3cc(O)c(O)cc3C2)cc1` (stereo unspecified), the TGI in the test with HOP-18 NSCLC was found to be 98.2 µM; in the test on SK-OV-3 ovarian, 275 µM; with SK-MEL-28 melanoma it was 32.8 µM; in the test on UACC-62 melanoma, 77.2 µM; with SN12C renal, 103 µM; with SW-620 colon, 34.5 µM. For the same molecule, the TGI with OVCAR-8 ovarian came to 44.7 µM; with OVCAR-3 ovarian it was 23.1 µM; in the test with RPMI-8226 leukemia, 37.9 µM; with EKVX NSCLC, 59.8 µM; in the test on COLO 205 colon, 26.2 µM.

Take `O=C(c1ccccc1)c1nc2ccc(Cl)cc2c2c1CCCO2`: the TGI in the test on HOP-18 NSCLC, with SK-MEL-28 melanoma, in the test with UACC-62 melanoma, in the test on SN12C renal, with SW-620 colon and in the test on OVCAR-8 ovarian was greater than 100 µM throughout. The TGI in the test with OVCAR-3 ovarian, in the test with RPMI-8226 leukemia, in the test with EKVX NSCLC and in the test on COLO 205 colon was greater than 100 µM each time.

Regarding `O=C1C=CC(=O)c2c(O)c(Br)c(Br)c(O)c21`, the concentration for total growth inhibition (TGI) with SK-OV-3 ovarian amounted to 35.5 µM; with SK-MEL-28 melanoma, 4.91 µM; with UACC-62 melanoma, 26.1 µM; in the test on SN12C renal it was 18.4 µM; with SW-620 colon, 3.44 µM; in the test with OVCAR-8 ovarian, 25.7 µM. The TGI is 15.8 µM with OVCAR-3 ovarian; 3.42 µM with RPMI-8226 leukemia; 58.7 µM in the test on EKVX NSCLC; 4.18 µM in the test on HOP-92 NSCLC; 2.46 µM with COLO 205 colon.

For `COc1cc(C(=O)CC2OC(=O)C(Cl)=C2Cl)ccc1Cl` (stereo unspecified), the TGI with HOP-18 NSCLC, with SK-OV-3 ovarian, with SK-MEL-28 melanoma, in the test with UACC-62 melanoma, with SN12C renal and in the test on SW-620 colon was greater than 100 µM each time. The TGI in the test with OVCAR-8 ovarian, in the test with OVCAR-3 ovarian, with RPMI-8226 leukemia, in the test on EKVX NSCLC, with HOP-92 NSCLC and with COLO 205 colon was greater than 100 µM in each case.

For `O=C(c1ccccc1)C1C(c2ccccc2)N1S(=O)(=O)c1ccccc1` (stereo unspecified), the total growth inhibition concentration (TGI) in the test with SK-OV-3 ovarian, in the test with SK-MEL-28 melanoma, in the test on UACC-62 melanoma, with SN12C renal, in the test with SW-620 colon and in the test with OVCAR-8 ovarian was greater than 100 µM in each case. Further, the concentration for total growth inhibition (TGI) in the test on OVCAR-3 ovarian, in the test on RPMI-8226 leukemia, in the test on EKVX NSCLC and with COLO 205 colon was greater than 100 µM each time.

In the case of `Cc1ccc2c(ccc(/C=C\c3cc(C)c4cccnc4c3O)[n+]2C)c1`, the TGI with HOP-18 NSCLC turned out to be 9.28 µM; with UACC-62 melanoma, 15 µM; in the test with SN12C renal, 24.7 µM; in the test with SW-620 colon, 30.1 µM; in the test with OVCAR-8 ovarian, 24.1 µM; with OVCAR-3 ovarian it was 12.9 µM. Besides, the TGI in the test with RPMI-8226 leukemia worked out at 21.6 µM; in the test with EKVX NSCLC, 75 µM; in the test with COLO 205 colon, 71.9 µM.

Take `OCc1cc2ccncc2c2c1[nH]c1ccccc12`: the TGI with HOP-18 NSCLC was 27.4 µM; in the test with SK-MEL-28 melanoma, greater than 100 µM; in the test with SN12C renal it was 30.3 µM; in the test with SW-620 colon, 19.7 µM; with OVCAR-8 ovarian, 49.3 µM; with RPMI-8226 leukemia, 37.2 µM. For the same molecule, the TGI in the test with EKVX NSCLC was greater than 100 µM; in the test on HOP-92 NSCLC it was 82.5 µM; with COLO 205 colon, 29.4 µM.

For the molecule `CC1(C)N=C(N)N=C(N)N1c1cccc(C(=O)Nc2ccc(S(=O)(=O)F)cc2)c1`, the TGI in the test on SK-OV-3 ovarian, in the test on SK-MEL-28 melanoma, in the test on UACC-62 melanoma, in the test with SN12C renal, with SW-620 colon and with OVCAR-8 ovarian was greater than 100 µM in each case. Moreover, the TGI in the test on OVCAR-3 ovarian, in the test on RPMI-8226 leukemia, in the test on EKVX NSCLC, in the test on HOP-92 NSCLC and in the test with COLO 205 colon was greater than 100 µM each time.

For the molecule `CCN(CC)c1ccc2nc3ccc(N=Nc4c(O)ccc5ccccc45)cc3[n+](-c3ccccc3)c2c1`, the TGI with SK-OV-3 ovarian, with SK-MEL-28 melanoma, in the test on UACC-62 melanoma, in the test with SN12C renal, in the test with SW-620 colon and with OVCAR-8 ovarian was greater than 100 µM in each case. The TGI in the test on OVCAR-3 ovarian, in the test with RPMI-8226 leukemia, with EKVX NSCLC, with HOP-92 NSCLC and in the test with COLO 205 colon was greater than 100 µM each time.

In the case of `C[N+](C)(C)c1cc2c(nn1)Nc1ccccc1S2`, the TGI in the test with SK-OV-3 ovarian is 72 µM; with SK-MEL-28 melanoma it was 53.1 µM; in the test with UACC-62 melanoma, 36.9 µM; in the test with SN12C renal, greater than 100 µM; in the test on SW-620 colon, greater than 100 µM; with OVCAR-8 ovarian it was 77.9 µM. In addition, the TGI with OVCAR-3 ovarian worked out at 54.8 µM; in the test with RPMI-8226 leukemia, 36 µM; in the test on EKVX NSCLC, 29.9 µM; in the test with HOP-92 NSCLC, 48.5 µM; in the test on COLO 205 colon, 38 µM.

On to `CN=C(N)c1ccc(N=C(N)c2ccc(C(N)=Nc3ccc(C(N)=NC)cc3)cc2)cc1`, for which the TGI with SK-OV-3 ovarian, with SK-MEL-28 melanoma, in the test with UACC-62 melanoma, with SN12C renal, in the test with SW-620 colon and with OVCAR-8 ovarian was greater than 100 µM each time. For the same molecule, the concentration for total growth inhibition (TGI) in the test on OVCAR-3 ovarian, in the test with RPMI-8226 leukemia, in the test on HOP-92 NSCLC and in the test on COLO 205 colon was greater than 100 µM throughout.

On to `Clc1ccc(C[P+]2(c3ccccc3)CCCCC2)cc1`, for which the TGI with HOP-18 NSCLC, in the test on SK-OV-3 ovarian, in the test on SK-MEL-28 melanoma, in the test on UACC-62 melanoma, in the test with SN12C renal and in the test with SW-620 colon was greater than 100 µM each time. For the same molecule, the TGI in the test on OVCAR-8 ovarian, with OVCAR-3 ovarian, with RPMI-8226 leukemia, in the test with EKVX NSCLC and in the test on COLO 205 colon was greater than 100 µM throughout.

Consider `C[C@]12CC[C@@H]3c4ccc(O)cc4CC[C@H]3[C@@H]1CC[C@@H]2OC(=O)CCc1ccccc1`, for which the TGI was 38.1 µM in the test on SK-OV-3 ovarian; 39.2 µM in the test on SK-MEL-28 melanoma; 28.8 µM in the test with UACC-62 melanoma; 49.6 µM with SN12C renal; 64.7 µM in the test with SW-620 colon; 51 µM in the test with OVCAR-8 ovarian. Also, the TGI in the test on OVCAR-3 ovarian worked out at 61.6 µM; with RPMI-8226 leukemia, 35.6 µM; in the test on EKVX NSCLC, 25.4 µM; with HOP-92 NSCLC, 36.8 µM; in the test on COLO 205 colon it was 37.1 µM.

For the molecule `N#C/C(=C\c1ccc(Br)cc1)n1nnc2cc(Cl)c(Cl)cc21`, the GI50 with SK-OV-3 ovarian was 4.33 µM; in the test on SK-MEL-28 melanoma, 1.84 µM; in the test on UACC-62 melanoma, 1.68 µM; in the test on OVCAR-8 ovarian, 2.17 µM; in the test with OVCAR-3 ovarian, 2.1 µM; with RPMI-8226 leukemia it was 1.42 µM. Also, the figures for the GI50 in the test with EKVX NSCLC and in the test with HOP-92 NSCLC were 2.83 µM and 1.14 µM, respectively. Besides, the total growth inhibition concentration (TGI) in the test on SK-OV-3 ovarian is greater than 100 µM; in the test on SK-MEL-28 melanoma it was 3.81 µM; with UACC-62 melanoma, 3.63 µM; in the test with OVCAR-8 ovarian it was greater than 100 µM; in the test with OVCAR-3 ovarian it was 5.29 µM; in the test on RPMI-8226 leukemia it was 4.38 µM. Moreover, the TGI with EKVX NSCLC was greater than 100 µM; with HOP-92 NSCLC, 3.79 µM.
